# Legend:
# [1] = test system: porcine liver scaffolds; experiment: Sterilization effect on scaffolds according to culture time (DMEM + 10% FBS, Columbia blood agar)
# Procedure: First, the porcine liver scaffolds prepared in Example 1 were divided into two groups: an experimental group in which the scaffolds were immersed in the slightly acidic electrolyzed water prepared in Example 2 to be sterilized for […], 60 minutes, 90 minutes, and 120 minutes, respectively; and a control group in which the scaffolds were treated with PBS, peracetic acid (PAA) solution (Sigma-Aldrich, St Louis, Mo., USA), and 70% ethanol solution (Daejung Chemicals and Metals, Seoul, Korea), instead of the slightly acidic electrolyzed water. The slightly acidic electrolyzed water was changed every 15 minutes to be the best fit for sterilization of the porcine liver scaffolds, and the sterilized porcine liver scaffolds were washed with PBS once.
# The porcine liver scaffolds of the experimental group and the control group treated by the method described in the above section 3-1 were incubated in Dulbecco's Modified Eagle's Medium (DMEM; Invitrogen, Carlsbad, Calif., USA) supplemented with 10% fetal bovine serum (FBS, Hyclone, Logan, Utah, USA) at 37° C. and on Columbia blood agar medium (Fluka Chemie GmbH) for 96 hours and then checked periodically for signs of infection. In the event of infection, the discoloration and turbidity of medium increases, and the growth of cell colonies is observed on blood agar medium.
# In Table 2, (−) represents that no symptoms of infection were observed; (+) represents that symptoms of infection were observed; (x) represents that symptoms of infection were observed before observation time; native liver, decellularized liver, and PBS-treated liver were used as positive controls; and medium without scaffolds was used as the negative control.
# [2] = Glycosaminoglycan content, dimethyl methylene blue dye-binding assay (Blyscan kit); design: species or system porcine; settings: for content of glycosaminoglycans, % of that in untreated and decellularized scaffolds: relative to untreated and decellularized scaffolds; for content of glycosaminoglycans, % of that in untreated scaffolds: relative to untreated scaffolds
# Procedure: To evaluate the effects of the slightly acidic electrolyzed water of the present invention on the content of glycosaminoglycans, the content of glycosaminoglycans in decellularized liver (untreated scaffolds), scaffolds treated with PBS, and scaffolds treated with the slightly acidic electrolyzed water of the present invention were determined using a dimethyl methylene blue dye-binding assay kit (Blyscan kit; Biocolor Ltd) according to the manufacturer's instructions. First, 5 mg of lyophilized sample was homogenized and solubilized. A 100 μL aliquot from each sample lysate was added to 1 mL of dimethyl methylene blue solution and agitated on a shaker at 25° C. for 30 minutes. The resulting solutions were then centrifuged at 10,000×g for 10 minutes to collect the GAG dye complex, and the supernatants were discarded. The remaining pellet was suspended in 1 mL of the provided dissociation reagent, and the absorbance was measured at 655 nm. Chondroitin sulfate provided in the kit was used as a standard of glycosaminoglycans.
# [3] = test system: collagen in porcine liver scaffolds; experiment: Collagen content, Sircol collagen dye-binding assay; settings: relative to native liver
# Procedure: To evaluate the effects of the slightly acidic electrolyzed water of the present invention on the content of collagen, the total collagen levels in native liver, decellularized scaffolds (untreated), scaffolds treated with PBS, PAA, or ethanol, and scaffolds treated with the slightly acidic electrolyzed water of the present invention were determined using a Sircol collagen dye-binding assay kit (Biocolor Ltd.) according to the manufacturer's instructions.
# In more detail, lyophilized samples of native porcine liver slices, scaffolds decellularized by the method of Example 1, porcine liver scaffolds treated with PAA, PBS, ethanol, and slightly acidic electrolyzed water, respectively, were prepared. Then, total acid pepsin-soluble collagen was obtained after incubation in 0.5 M acetic acid containing 0.1 mg/ml pepsin. A 100 μL aliquot of acid neutralizing reagent was added to the acid-pepsin extract. Then, the extract was centrifuged after an overnight incubation at 4° C. Then, 1 mL Sircol dye reagent was added to the pellet and incubated at 25° C. for 30 minutes. After centrifugation, the pellet was washed with acid-salt wash reagent and suspended in 1 mL of alkaline reagent. Then, the absorbance was measured at 540 nm.
# [4] = test system: porcine skin fibroblasts; experiment: Cytotoxicity test (MTT) with conditioned medium from sterilized scaffolds; type: cell-based; settings: conditioned medium from treated scaffolds
# Procedure: Conditioned cell culture media were prepared from scaffolds treated with the slightly acidic electrolyzed water of the present invention. In brief, serum-free DMEM cell culture medium was incubated overnight with each SAEW-treated scaffold at a concentration of 0.2 g/ml media at 37° C. in a shaker at 70 rpm/min. Cell culture media without scaffolds were prepared by the same method as above to provide unconditioned controls. After incubation, the scaffolds were removed and the medium was filtered through a 0.4 μm filter to prepare culture medium containing soluble factors released from extracellular matrix.
# The medium in which fibroblasts were incubated was aspirated, followed by the addition of conditioned or unconditioned culture medium containing 10% FBS and 1% penicillin-streptomycin (Gibco, Grand Island, N.Y., USA) to the well with attached fibroblasts, and the plate was incubated 37° C. in 5% CO2 atmosphere for 24 hours and 48 hours (the culture medium was changed every 24 hours).
# [5] = test system: porcine fibroblasts; experiment: Ki-67 immunostaining of fibroblasts in conditioned medium; type: cell-based; settings: conditioned medium from treated scaffolds
# Procedure: Conditioned and control media were prepared by the method described in Example 6-1, and about 5000 porcine fibroblasts were cultured on gelatin-coated 4-well plates for 24 hours. Then, the medium was switched to conditioned or control medium. The medium was changed every 24 hours. The proliferation potential of the soluble factors eluted from the scaffolds was checked after incubation for 24 hour and 48 hours. Cells were immunostained using anti-Ki-67 antibody (Abcam, Cambridge, UK). Texas Red goat anti-rabbit IgG (Invitrogen) was used as a secondary antibody. Nuclei were counterstained using a mounting medium containing DAPI. The percentage of Ki-67 positive cells was calculated as the ratio of average positive Ki-67 cells relative to 250 DAPI-stained cells.
# [6] = test system: porcine fibroblasts; experiment: MTT cell attachment assay on sterilized scaffolds; settings: incubated for 3 hours to attach, viable for 16 hours
# Procedure: Then, a 100 μL aliquot of DMEM in which porcine fibroblasts were suspended was added to each scaffold disc such that a total of about 50,000 fibroblasts were seeded on the plates. Then, the plate was incubated at 37° C. in 5% CO2 atmosphere for 3 hours to allow the fibroblasts to attach to scaffold substrates. The scaffold substrates were carefully transferred to another well such that the cells attached to the scaffold would remain undisturbed. Then, the plate was incubated at 37° C. in 5% CO2 atmosphere for 12 hours. Then, 10 μL of MTT solution (3-[4,5-dimethylthiazol-2yl]-2,5-diphenyltetrazolium bromide; 5 mg/ml, Sigma Aldrich) dissolved in PBS was added to each well and incubated at 37° C. in 5% CO2 atmosphere for 5 hours. Then, the media were removed and 200 μL of dimethyl sulfoxide (DMSO) was added to each well to dissolve the formazan by pipetting. After incubation for 10 minutes, 100 μL of solutions from the respective substrate wells were pipetted into another 96-well plate. Finally, the absorbance of the samples was determined using a spectrophotometer with a test wavelength of 570 nm and a reference wavelength of 630 nm.
# [7] = test system: DNA in porcine liver scaffolds; experiment: DNA content of treated scaffolds (removal of immunogenic antigens); settings: relative to untreated scaffolds
# Procedure: First, lyophilized samples of native porcine liver slices, scaffolds decellularized by the method of Example 1, porcine liver scaffolds treated with 0.1% peracetic acid solution (PAA; Sigma-Aldrich, St Louis, Mo., USA), PBS, 70% ethanol (Daejung Chemicals and Metals, Seoul, Korea), and slightly acidic electrolyzed water were prepared. Then, DNA was extracted from the lyophilized samples using the DNeasy Blood and Tissue Kit (Qiagen, Hilden, Germany).
SMILES,"symptoms of infection ([1]; Columbia blood agar, 6 hour)","symptoms of infection ([1]; Columbia blood agar, 24 hour)","symptoms of infection ([1]; Columbia blood agar, 36 hour)","symptoms of infection ([1]; Columbia blood agar, 48 hour)","symptoms of infection ([1]; Columbia blood agar, 60 hour)","symptoms of infection ([1]; DMEM + 10% FBS, 6 hour)","symptoms of infection ([1]; DMEM + 10% FBS, 24 hour)","symptoms of infection ([1]; DMEM + 10% FBS, 36 hour)","symptoms of infection ([1]; DMEM + 10% FBS, 48 hour)","symptoms of infection ([1]; DMEM + 10% FBS, 60 hour)","symptoms of infection ([1]; DMEM + 10% FBS, 72 hour)","content of glycosaminoglycans, % of that in untreated and decellularized scaffolds [2]","content of glycosaminoglycans, % of that in untreated scaffolds [2]",proliferation rate of fibroblasts compared to unconditioned medium ([4]; incubation for 24 hours),proliferation rate of fibroblasts compared to unconditioned medium ([4]; incubation for 48 hours),percentage of Ki-67 positive cells compared to the control group [5],seeded fibroblasts attached to scaffolds and remaining viable [6],further results
"CCO [Ethanol, ethanol]",−,−,−,−,+,−,−,−,−,−,+,64.16±1.92%,49.1±1.47%,109.22±5.58%,113.95±6.67%,no significant difference,64.86±3.48%,"content of collagen, % of that in native liver [3]: 87.54±4.07%"
"CC(=O)OO [PAA, peracetic acid]",−,−,−,−,−,−,−,−,−,−,−,56±1.04%,43±0.80%,119.18±5.6%,127.43±6.68%,no significant difference,71.50±1.95%,"symptoms of infection ([1]; Columbia blood agar, 72 hour): −; symptoms of infection ([1]; Columbia blood agar, 96 hour): −; symptoms of infection ([1]; DMEM + 10% FBS, 96 hour): −; efficiency for removing the DNA content [7]: 93.13±2.82%"

# From US9232804B2, “Compositions and methods for sterilizing bioscaffolds” (KNU University-Industry Cooperation Foundation, priority 2012, dated 2016)
